Results on eight compounds are retold here after patent US10829452B2, “Histone methyltransferase inhibitors” (GLOBAL BLOOD THERAPEUTICS, INC., priority 2016, dated 2020).

Where a name gives a salt, the structure may show the parent alone.

The target of the assay is T1, G9a (Homo sapiens, UniProt Q96KQ7).
T1 sequence (Q96KQ7 1-1210): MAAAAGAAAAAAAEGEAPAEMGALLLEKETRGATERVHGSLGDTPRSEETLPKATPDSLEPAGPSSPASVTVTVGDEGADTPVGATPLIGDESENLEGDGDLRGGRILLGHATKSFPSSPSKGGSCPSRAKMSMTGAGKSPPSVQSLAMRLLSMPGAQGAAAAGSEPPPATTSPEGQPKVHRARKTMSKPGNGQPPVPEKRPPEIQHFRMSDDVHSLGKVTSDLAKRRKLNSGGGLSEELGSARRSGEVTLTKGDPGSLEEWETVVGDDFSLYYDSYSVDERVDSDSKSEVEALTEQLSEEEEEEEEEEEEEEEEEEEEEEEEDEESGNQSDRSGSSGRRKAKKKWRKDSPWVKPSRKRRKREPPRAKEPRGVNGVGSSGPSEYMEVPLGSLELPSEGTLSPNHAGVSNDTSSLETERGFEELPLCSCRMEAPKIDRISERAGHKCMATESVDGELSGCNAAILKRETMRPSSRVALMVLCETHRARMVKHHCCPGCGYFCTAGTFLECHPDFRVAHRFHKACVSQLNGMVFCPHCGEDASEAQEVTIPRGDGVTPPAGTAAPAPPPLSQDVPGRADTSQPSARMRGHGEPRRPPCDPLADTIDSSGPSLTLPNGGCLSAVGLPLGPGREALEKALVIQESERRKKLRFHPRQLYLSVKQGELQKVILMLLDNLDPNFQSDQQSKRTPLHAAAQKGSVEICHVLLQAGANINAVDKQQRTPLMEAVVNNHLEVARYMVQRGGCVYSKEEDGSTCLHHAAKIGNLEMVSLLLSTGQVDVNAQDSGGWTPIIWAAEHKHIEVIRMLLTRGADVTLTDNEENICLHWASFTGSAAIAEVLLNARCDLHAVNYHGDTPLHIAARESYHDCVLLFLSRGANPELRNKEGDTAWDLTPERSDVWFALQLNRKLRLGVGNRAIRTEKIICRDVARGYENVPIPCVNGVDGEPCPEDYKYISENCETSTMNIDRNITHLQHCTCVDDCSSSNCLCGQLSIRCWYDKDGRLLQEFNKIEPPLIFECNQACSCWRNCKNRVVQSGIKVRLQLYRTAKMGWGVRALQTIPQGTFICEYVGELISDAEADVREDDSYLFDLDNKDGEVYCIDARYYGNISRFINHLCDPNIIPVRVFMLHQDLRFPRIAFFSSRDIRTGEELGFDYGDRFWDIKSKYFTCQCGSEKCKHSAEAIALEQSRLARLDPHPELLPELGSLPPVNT
Kind of assay: G9a AlphaLISA enzymatic activity assay. It counts as biochemical. The note with it: 0.15 nM G9a, 15 uM S-adenosyl-methionine, 100 nM biotinylated histone 3 peptide (1-21), 1 hour at room temperature; read-out: G9a in (uM) (IC50, concentration that produced 50% inhibition). Put shortly:
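Human G9a (0.15 nM) methylated 100 nM biotinylated histone H3(1-21) peptide with 15 uM SAM in Tris-HCl pH9 buffer with NaCl, Tween-20 and DTT, 1 h at room temperature. H3K9me2 was detected by AlphaLISA acceptor/streptavidin donor beads (20 ug/mL each); IC50 from percent inhibition across compound dilutions.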
For the compound `COc1cc2c3c(c(NCCc4ccccc4)nc2cc1OCCCN1CCCC1)CCC3` [Example 5, 8-methoxy-N-(2-phenylethyl)-7-[3-(pyrrolidin-1-yl)propoxy]-1H,2H,3H-cyclopenta[c]quinolin-4-amine trifluoroacetate], the IC50 is 0.15 µM.
As for `COc1cc2c3c(c(NC4(C(=O)O)CC4)nc2cc1OCCCN1CCCC1)CCC3` [Example 62, 1-({8-methoxy-7-[3-(pyrrolidin-1-yl)propoxy]-1H,2H,3H-cyclopenta[c]quinolin-4-yl}amino)cyclopropane-1-carboxylic acid formate], the IC50 amounted to 0.12 µM.
For the compound `CNc1nc2cc(OCCCN3CCCC3)c(OC)cc2c2c1COCC2` [Example 57, 9-methoxy-N-methyl-8-[3-(pyrrolidin-1-yl)propoxy]-1H,2H,4H-pyrano[3,4-c]quinolin-5-amine formate], the IC50 came to 0.21 µM.
Take `COc1cc2c3c(c(NC(C)C)nc2cc1OCCCN1CCCC1)CC(C)(C)N3` [Example 25, 8-methoxy-2,2-dimethyl-N-(propan-2-yl)-7-[3-(pyrrolidin-1-yl)propoxy]-1H,2H,3H-pyrrolo[3,2-c]quinolin-4-amine trifluoroacetate]: the IC50 turned out to be 0.005 µM.
On to `COc1cc2c3c(c(C)nc2cc1OCCCN1CCCC1)CCCN3` [Example 28, 1-[3-({9-methoxy-5-methyl-1H,2H,3H,4H-benzo[h]1,6-naphthyridin-8-yl}oxy)propyl]pyrrolidine trifluoroacetate], for which the IC50 was 0.006 µM.
As for `COc1ccc(CNc2nc3cc(OCCCN4CCCC4)c(OC)cc3c3c2CCC3)c(OC)c1` [Example 115, N-[(2,4-dimethoxyphenyl)methyl]-8-methoxy-7-[3-(pyrrolidin-1-yl)propoxy]-1H,2H,3H-cyclopenta[c]quinolin-4-amine formate], the IC50 stood at 0.009 µM.
Take `COc1cc2c3c(c(NC4CCCCC4)nc2cc1OCCCN1CCCC1)CCC3` [Example 107, N-cyclohexyl-8-methoxy-7-[3-(pyrrolidin-1-yl)propoxy]-1H,2H,3H-cyclopenta[c]quinolin-4-amine trifluoroacetate]: the IC50 was determined as 0.016 µM.
In the case of `COc1cc2c3c(c(NC(C)C)nc2cc1OCCCN1CCCC1)CN(C)CC3` [Example 71, 9-methoxy-3-methyl-N-(propan-2-yl)-8-[3-(pyrrolidin-1-yl)propoxy]-1H,2H,3H,4H-benzo[c]2,7-naphthyridin-5-amine formate], the IC50 was 1.1 µM.
